The values below are quoted from earlier work in patent US8853454B2, “Quaternary ammonium salts as microbe inhibitors” (Mionix Corporation, priority 2006, dated 2014).

The conditions of this data set: in vivo.

`OCCCl` [2-chloroethanol]: the oral lethal dose is 50 to 500 mg/kg.
